Common to all, as to format: functional
One assay concerns Bacillus subtilis. Nature of the assay: Antimicrobial activity against Bacillus subtilis MTCC 441 after 24 hrs by agar well diffusion method. Conditions: for MIC: Bacillus subtilis, MTCC 441, 24 h.
The subject of a further assay is Staphylococcus aureus. The assay is described as follows: Antimicrobial activity against Staphylococcus aureus MTCC 96 after 24 hrs by agar well diffusion method. The note with it: for MIC: Staphylococcus aureus, MTCC 96, 24 h. (In general: A growth-free zone around the sample is the usual read-out of agar diffusion tests.)
For another assay, the system named is Escherichia coli. The assay is described as follows: Antimicrobial activity against Escherichia coli MTCC 1650 after 24 hrs by agar well diffusion method. Conditions: for MIC: Escherichia coli, MTCC 1650, 24 h.
Another assay has as its system Pseudomonas aeruginosa. The assay is described as follows: Antimicrobial activity against Pseudomonas aeruginosa MTCC 1688 after 24 hrs by agar well diffusion method. The note with it: for MIC: Pseudomonas aeruginosa, MTCC 1688, 24 h.
A further assay relates to Aspergillus niger. Nature of the assay: Antifungal activity against Aspergillus niger MTCC 1781 after 2 to 3 days by agar well diffusion method.
The subject of the next assay is Candida albicans. The assay is described as follows: Antifungal activity against Candida albicans MTCC 227 after 2 to 3 days by agar well diffusion method.

In brackets after ≈: the same amount, converted by molar mass.

For orientation: MIC means the lowest concentration that inhibits growth of the organism. Turning to `Cl.N#Cc1ccc(Nc2nc(Nc3cc[nH]n3)nc(Nc3cc[nH]n3)n2)cn1`, the “inhibition zone (IZ)” value in the assay on Bacillus subtilis is on record as 10 mm; in the assay on Staphylococcus aureus, 12 mm; in the assay on Escherichia coli, 12 mm; in the assay on Pseudomonas aeruginosa, 14 mm; with Aspergillus niger, 14 mm; in the assay with Candida albicans it was 14 mm. Moreover, the MIC came out at 6.25 µg/mL in the assay on Bacillus subtilis; 12.5 µg/mL against Staphylococcus aureus; 6.25 µg/mL against Escherichia coli; 12.5 µg/mL in the assay on Pseudomonas aeruginosa; 12.5 µg/mL in the assay with Aspergillus niger (Aspergillus niger, MTCC 1781); 12.5 µg/mL in the assay with Candida albicans (Candida albicans, MTCC 227).
Consider `CN(C)CCNc1nc(NCCN(C)C)nc(Nc2ccc(C#N)nc2)n1.Cl`, for which the “inhibition zone (IZ)” value in the assay with Bacillus subtilis was 12 mm; with Staphylococcus aureus, 12 mm; with Escherichia coli, 14 mm; with Pseudomonas aeruginosa, 12 mm; in the assay on Aspergillus niger, 12 mm; in the assay on Candida albicans, 14 mm. In addition, the MIC with Bacillus subtilis stood at 25 µg/mL; in the assay on Staphylococcus aureus, 12.5 µg/mL; in the assay on Escherichia coli, 12.5 µg/mL; against Pseudomonas aeruginosa, 12.5 µg/mL; in the assay with Aspergillus niger (Aspergillus niger, MTCC 1781), 25 µg/mL; in the assay with Candida albicans (Candida albicans, MTCC 227), 25 µg/mL.
As to `Cc1ccc(Nc2nc(Nc3ccc(C)cc3)nc(Nc3ccc(C#N)nc3)n2)cc1.Cl`, the “inhibition zone (IZ)” value is reported as 12 mm in the assay with Bacillus subtilis; 12 mm in the assay with Staphylococcus aureus; 12 mm in the assay on Escherichia coli; 10 mm in the assay on Pseudomonas aeruginosa; 14 mm in the assay on Aspergillus niger; 14 mm in the assay with Candida albicans. For the same compound, the MIC with Bacillus subtilis is 25 µg/mL; with Staphylococcus aureus, 12.5 µg/mL; against Escherichia coli, 12.5 µg/mL; with Pseudomonas aeruginosa it was 25 µg/mL; in the assay with Aspergillus niger (Aspergillus niger, MTCC 1781), 100 µg/mL; against Candida albicans (Candida albicans, MTCC 227), 25 µg/mL.
In the case of `CC(=O)N1CCN(c2nc(Nc3ccc(C#N)nc3)nc(N3CCN(C(C)=O)CC3)n2)CC1.Cl`, the “inhibition zone (IZ)” value with Bacillus subtilis is on record as 12 mm; with Staphylococcus aureus, 12 mm; with Escherichia coli, 12 mm; with Pseudomonas aeruginosa, 10 mm; with Aspergillus niger, 14 mm; with Candida albicans, 14 mm. Further, the MIC came to 50 µg/mL against Bacillus subtilis; 50 µg/mL against Staphylococcus aureus; 50 µg/mL in the assay with Escherichia coli; 50 µg/mL against Pseudomonas aeruginosa; 100 µg/mL against Aspergillus niger (Aspergillus niger, MTCC 1781); 25 µg/mL against Candida albicans (Candida albicans, MTCC 227).
As for `COCCNc1nc(NCCOC)nc(Nc2ccc(C#N)nc2)n1.Cl`, the “inhibition zone (IZ)” value in the assay on Bacillus subtilis amounted to 12 mm; in the assay with Staphylococcus aureus, 12 mm; in the assay with Escherichia coli, 12 mm; in the assay with Pseudomonas aeruginosa it was 12 mm; in the assay on Aspergillus niger it was 14 mm; with Candida albicans it was 12 mm. The MIC turned out to be 6.25 µg/mL against Bacillus subtilis; 12.5 µg/mL with Staphylococcus aureus; 6.25 µg/mL in the assay with Escherichia coli; 6.25 µg/mL with Pseudomonas aeruginosa; 12.5 µg/mL in the assay with Aspergillus niger (Aspergillus niger, MTCC 1781); 12.5 µg/mL against Candida albicans (Candida albicans, MTCC 227).
Take `CN[C@@H]1[C@H](O[C@H]2[C@H](O[C@H]3[C@H](O)[C@@H](O)[C@H](N=C(N)N)[C@@H](O)[C@@H]3N=C(N)N)O[C@@H](C)[C@]2(O)C=O)O[C@@H](CO)[C@H](O)[C@H]1O` [STREPTOMYCIN]: the “inhibition zone (IZ)” value in the assay with Bacillus subtilis was 22 mm; in the assay with Staphylococcus aureus, 20 mm; in the assay on Escherichia coli, 22 mm; in the assay with Pseudomonas aeruginosa, 24 mm. Further, the MIC in the assay with Bacillus subtilis, in the assay with Staphylococcus aureus, in the assay on Escherichia coli and with Pseudomonas aeruginosa was 6.25 µg/mL (≈ 10.7 µM) throughout.
Turning to NYSTATIN, the MIC with Aspergillus niger and against Candida albicans was 6.25 µg/mL each time. Further, the inhibition zone (IZ) in the assay with Aspergillus niger and in the assay with Candida albicans was 20 mm throughout.

Source of the values: ChEMBL document CHEMBL2057118, “Synthesis and biological evaluation of novel 2,4,6-triazine derivatives as antimicrobial agents” (2012).
